# Measurements: US20040106681A1, “Dosage escalation and divided daily dose of anti-depressants to treat neurological disorders” (priority 2002, published 2004)
# Counter-ions that a name gives are not always drawn.
# How the values were obtained:
# [1] = pretreatment; repeatedly stressed rats; cited from earlier work
# [2] = swim stress test, hot plate response latency (thermal nociception threshold); type: in vivo, Sprague-Dawley rats
# Procedure: (§1) The treatment groups of rats were the following: (1) stressed—forced swimming in 20 cm of water; (2) sham—swimming in 2-3 cm of water; (3) naive—left undisturbed in cage.
# (§2) The rats were tested for thermal nociception threshold by hot plate response latency (in seconds). The rats were tested for muscle hyperalgesia by measuring grip strength (in kg) by algometer.
# (§3) Data on hot plate response latency and grip strength was acquired on days 7 and 11.
# [3] = swim stress test, grip strength (muscle hyperalgesia); type: in vivo, Sprague-Dawley rats
# Procedure: as §1, §2, §3
# [4] = Example 1 gradual dose escalation study in fibromyalgia; type: in vivo, human; conditions: out of approximately 70 treated; weekly escalation 25, 50, 100, 200 mg daily
# Description: This study was undertaken to characterize the efficacy of milnacipran in treatment of fibromyalgia syndrome (FMS). A secondary objective was to evaluate the relationship between daily dose administered, frequency of dosing, and efficacy in treatment of FMS. […] In this study, daily dosages were gradually escalated.
# Subjects who met the 1990 ACR criteria for fibromyalgia syndrome were eligible for enrollment. Patients recorded baseline symptoms for the first two weeks after washing off anti-depressants, hypnotics and certain other drugs that potentially could interfere with efficacy measurements. […] If the patient tolerated this dosage, they were stepped up to a 50 mg daily dosage for week two, 100 mg for week three, and 200 mg for week four, or a matching placebo. If dose-limiting toxicities were encountered during any given week, the patient was stepped down to the previous week's dosage and maintained at that dosage for the remainder of the study. Subjects continued to take their maximum tolerated dose (up to 200 mg) for an additional 8 weeks. Patients may receive a total of 12 weeks of medication. Dose-limited toxicity is defined as the occurrence of a drug-related grade 3-4 adverse event.
# Efficacy was measured using FMS status assessments prior to receiving the first dose and during monthly clinic visits. […]
# [5] = Example 2 12-week randomized, double-blind placebo-controlled dose escalation monotherapy trial in FMS; type: in vivo, human; conditions: for Intolerance (dose escalation failures, number of patients): 36 total patients
# Procedure: After an initial period when patients were washed off pain medication, centrally acting stimulants, antidepressants and sedative-hypnotics, a two-week baseline period was begun. […] All patients were escalated over a 4-week period in weekly steps from 25 mg daily, to 50, 100, and finally 200 mg daily, or until dose-limiting toxicity (DLT) was evident. The presence of DLT was evaluated by the study center each week prior to authorizing the patient to step up to the next higher dosage. In the event that DLT was evident, the patient was stabilized at the previously well-tolerated dosage, and remained on this dose for eight weeks at stable dose therapy. Patients who successfully reached the 200 mg daily dose were also then treated for an additional 8 weeks at that dose.
# At any give dose level, milnacipran QD patients would receive the full dose of milnacipran in the morning and receive placebo at night. Milnacipran BID patients would receive the same total amount in a split dose given morning and evening. During the study, patents were asked to carry an electronic diary and record pain, fatigue, sleep, and functional information. The custom designed diary captured spontaneous pain data in several ways, including
# (1) random daily prompts (the device notified the patient to record their current level of pain 4-5 times per day);
# (2) a morning daily prompt querying about the previous 24-hours' pain;
# (3) a Friday night weekly report asking about the patient's average pain for the past week.
# The electronic assessments were supplemented with traditional pain, mood, and quality of life inventories during clinic visits. The diaries implemented an electronic version of the Gracely anchored logarithmic pain scale. This scale asks patients to choose between “extremely intense,” “very intense,” “intense,” “strong,” “slightly intense,” “barely strong,” “moderate,” “mild,” “very mild,” “weak,” “very weak,” “faint,” and “no pain” sensation to describe their pain.
# During the 4th, 8th, and 12th week of treatment, patients visited the clinic, where a number of standard outcome measures including the SF-36, the McGill pain questionnaire, the Beck, the STPI, the fibromyalgia impact questionnaire, and several pain measures were administered. Safety information was also collected at these clinic visits.
# The primary endpoint was defined as the change in pain score from baseline to endpoint based on pain scores collected on the patient electronic diary (PED). Endpoint was defined as week twelve for assessments with a single value (such as clinic measures) or the average of scores at weeks 11 and 12 for diary-based outcomes. “Responders” were defined as those patients an improvement in pain score of at least 30%.
# [6] = pretreatment, 10 or 30 mg/kg/day IP QD days 1-11, swim stress days 8-10
# [7] = treatment after swim stress, drug days 5-10, swim stress days 2-4
Structure (SMILES),development of cutaneous hyperalgesia [1],"swim stress-induced reductions in hot plate latency [2, 6]","swim stress-induced reductions in hot plate response latency [2, 7]","stress-induced reduction in grip strength [3, 6]","reduction in grip strength caused by repeated forced swim stress [3, 7]",patients who failed to tolerate 200 mg/day [4],"patient global pain score, mean value ([5]; 1-7 scale (1 very much improved, 4 unchanged, 7 very much worse), endpoint, 38 MIL patients, QD and BID pooled)",% Dose Intolerance ([5]; BID dosing) [%],"Intolerance (dose escalation failures, number of patients) ([5]; BID dosing)","difference in Beck scores at endpoint versus placebo ([5]; FMS patients meeting definition of MDE, pooled milnacipran groups, p=0.03)","daily sleep quality scores, improvement versus placebo ([5]; QD and BID, 12-week treatment)",% Dose Intolerance ([5]; QD dosing) [%],"Intolerance (dose escalation failures, number of patients) ([5]; QD dosing)",worsening of sleep quality ([5]; in vivo),"patient electronic diary (PED) pain scores of responders ([5]; milnacipran BID, weeks 2-6, dose escalation)","24-hour daily pain reported scores, BID versus QD ([5]; throughout 12-week treatment)"
"CNCCC(Oc1ccc(C(F)(F)F)cc1)c1ccccc1.Cl (racemic) [fluoxetine, (±)-N-methyl-3-phenyl-3-[(α,α,α-trifluoro-p-tolyl)oxy]propylamine hydrochloride]",prevent the development of cutaneous hyperalgesia,,,,,,,,,,,,,,,
"CCN(CC)C(=O)[C@@]1(c2ccccc2)C[C@H]1CN (racemic) [milnacipran, (±)-cis-2-(aminomethyl)-N,N-diethyl-1-phenylcyclopropanecarboxamide hydrochloride]",,not prevented,did not reverse,prevented,did reverse,9,2.3,6,2,significant,No significant improvement,19,7,no worsening,improvement,BID dosing was more effective than QD dosing
CN(C)CCCN1c2ccccc2CCc2ccc(Cl)cc21 [clormipramine],prevent the development of cutaneous hyperalgesia,,,,,,,,,,,,,,,
